Data reported in ChEMBL document CHEMBL1150538, “Anti HIV-1 activity of a hydrophilic cyclosporin derivative with improved binding affinity to cyclophilin A” (Bioorg Med Chem Lett, 1996).
Converted amounts (≈) assume the structure as drawn.

Tests used:
AIK-T4 = assay: In vitro inhibition of the cytopathic effect induced by HIV-1(IIIB) using the human T-cell leukemia virus transformed T4 cell line.; assay type: functional, cell-based
Mus musculus = organism: Mus musculus; assay: In vitro immunosuppressive activity relative to cyclosporin A was determined by using mouse mixed lymphocyte reaction; assay type: functional
Jurkat = assay: In vitro immunosuppressive activity relative to cyclosporin A using interleukin-2 reporter gene assay was determined in a Jurkat cell line; assay type: functional, Homo sapiens

| Structure (SMILES) | IC50 (AIK-T4) [µg/mL] | Relative IC50 (Mus musculus) | Relative IC50 (Jurkat) |
| --- | --- | --- | --- |
| C/C=C/C[C@@H](C)[C@@H](O)[C@H]1C(=O)N[C@@H](CC)C(=O)N(C)[C@H](CO)C(=O)N(C)[C@@H](CC(C)(C)O)C(=O)N[C@@H](C(C)C)C(=O)N(C)[C@@H](CC(C)C)C(=O)N[C@@H](C)C(=O)N[C@H](C)C(=O)N(C)[C@@H](CC(C)C)C(=O)N(C)[C@@H](CC(C)C)C(=O)N(C)[C@@H](C(C)C)C(=O)N1C [listing 1 of 2 here] | 0.12 (≈ 0.0961 µM) |  |  |
| C/C=C/C[C@@H](C)[C@@H](O)[C@H]1C(=O)N[C@@H](CC)C(=O)N(C)[C@H](CO)C(=O)N(C)[C@@H](CC(C)(C)O)C(=O)N[C@@H](C(C)C)C(=O)N(C)[C@@H](CC(C)C)C(=O)N[C@@H](C)C(=O)N[C@H](C)C(=O)N(C)[C@@H](CC(C)C)C(=O)N(C)[C@@H](CC(C)C)C(=O)N(C)[C@@H](C(C)C)C(=O)N1C [listing 2 of 2 here] |  | >3333 | >770 |
